These results are taken from patent publication US20040258620A1, “(Ethylene)-( propylene)-triaminepentaacetic acid derivatives, process for their production, and their use for the production of pharmaceutical agents” (priority 2001, published 2004).

Data set [1] in a line: Simultaneous analysis of 17O NMR, EPR and NMRD data. The source says: The ^17O NMR, NMRD and EPR experimental data (points) and the fitted curves (lines) as obtained in a simultaneous analysis, according to the method of Powell et al., J. Am. Chem. Soc.
For data set [2] the following is noted: IUPAC Stability constants. Academic Software and K. J. Powell, 1999; cited from earlier work.
The conditions of data set [3]: IUPAC Stability constants. Academic Software and K. J. Powell, 1999; cited from earlier work. The source holds these as a separate data set.
The conditions of data set [4]: IUPAC Stability constants. Academic Software and K. J. Powell, 1999; cited from earlier work. The source holds these as a separate data set.
For data set [5] the following is noted: cited from earlier work.
The mark [6] stands for this setting: Gd(III) complex of the ligand, water exchange.

Take `O=C(O)CN(CCN(CC(=O)O)CC(=O)O)CCN(CC(=O)O)CC(=O)O` [DTPA, diethylenetriamine-pentaacetic acid, reference compound]: in data set [1] (Gd(III) complex of the ligand), the A/ħ is on record as −3.8 ± 0.2 10^6 rad s^−1, the Ev amounted to 0.382 ± 0.43 kcal/mol, the “Δ^2” value is on record as 0.46 ± 0.02 10^20 s^−1 and the τr is recorded as 58 ± 11 ps. In data set [1] (Gd(III) complex of the ligand), this compound came in with a τy of 25 ± 1 ps. Besides, in data set [1] (setting [6]), the “ΔH^‡” value worked out at 12.3 ± 0.335 kcal/mol and the “ΔS^‡” value is 53.0 ± 4.7 J mol^−1K^−1. Moreover, the “kex^298” value in data set [1] (Gd(III) complex of the ligand, water exchange rate) is recorded as 3.3 ± 0.2 10^6 s^−1. The same compound gave an Er in data set [1] (not told) of 4.13 ± 0.19 kcal/mol. Moreover, in data set [2], the logKGdHL is recorded as 1.80 and the logKGdL is given as 22.50. In data set [3], the logKZnHL is reported as 3.0 and the logKZnL was 18.3. In data set [4], the logKCaHL was 6.42 and the logKCaL is listed as 10.89.
As to `O=C([O-])CN1CCCN(CC(=O)[O-])CCN(CC(=O)[O-])CCN(CC(=O)[O-])CC1.[Gd+3]` [Gd(III)(TRITA)], in data set [5] (determined by potentiometry [Clarke and Martell, Inorg. Chim, Acta, 1991]), the “thermodynamic stability constant, logβ” value is listed as 19.2.
Regarding `O=C([O-])CN(CCCN(CC(=O)[O-])CC(=O)[O-])CCN(CC(=O)[O-])CC(=O)[O-].[Gd+3]` [Gd(III)(EPTPA), Gd(III) complex of 3,6,10-tri(carboxymethly)-3,6,10-triazadodecanedioic acid], the “thermodynamic stability constant, logo” value in data set [5] (determined by potentiometry (Wang et al, Dalton, 1998)) is 22.77.
